From patent US20100234238A1, “METHOD FOR PROFILING KINASE INHIBITORS” (Janssen Pharmaceutica N V, priority 2006, published 2010)

Columns and labels:
[1] = system: tyrosine kinase activity in cell line lysates; experiment: Peptide array profiling of 9 cell line lysates in the presence of MTKI or Tarceva; assay type: biochemical; settings: GTL16 lysates; 5 μM
Procedure: To test whether other EGFR inhibitors, related to MTKI, such as Tarceva (erlotinib; OSI pharmaceuticals), are also amenable to this response prediction methodology, 9 cell lines were profiled in the presence of MTKI, or Tarceva (5 μM in both cases). […] The value of the previously derived MTKI prediction peptides is illustrated in Tables 6A to C. Based on these peptides also response to Tarceva can be predicted with identical accuracy as for MTKI (and with the same false predictions, in casu H2009 and MOLT4).

[2] = system: cMet kinase activity in cell lysates; experiment: 140-tyrosine peptide array profiling of cell lysates with cMET inhibitor 605; assay type: biochemical; settings: responder cell lysates; 1 μM compound
Description: To examine whether the currently available 140-tyrosine peptide arrays from Pamgene will also detect other kinase activities then those described above, another compound was profiled using the same methodology: this is an exquisitely selective inhibitor of the cMET receptor tyrosine kinase (see US2007 0203136 A1) and with formula: […]
(§1) As shown in Example 7, clear-cut differences in peptide phosphorylation inhibition by 605 could be identified in the responder lysates versus non-responder lysates. Note that the cMet signature peptide set features two peptides derived from Ron, the closest homologue to cMet. […] The 605 signature peptides show no overlap at all with the MTKI signature peptides set, consistent with the absence of any overlap in kinase specificity between MTKI and 605.

[3] = system: HGF-induced colony formation; experiment: HGF-induced colony formation (responsiveness to 605); assay type: cell-based; parameters: key: R = Responder to cMET; NR = Non-Responder to cMET
[4] = target: Ron kinase (Homo sapiens, UniProt Q04912); experiment: Purified Ron kinase inhibition; assay type: biochemical; settings: 1 μM
Ron kinase, sequence (Q04912 25-1400): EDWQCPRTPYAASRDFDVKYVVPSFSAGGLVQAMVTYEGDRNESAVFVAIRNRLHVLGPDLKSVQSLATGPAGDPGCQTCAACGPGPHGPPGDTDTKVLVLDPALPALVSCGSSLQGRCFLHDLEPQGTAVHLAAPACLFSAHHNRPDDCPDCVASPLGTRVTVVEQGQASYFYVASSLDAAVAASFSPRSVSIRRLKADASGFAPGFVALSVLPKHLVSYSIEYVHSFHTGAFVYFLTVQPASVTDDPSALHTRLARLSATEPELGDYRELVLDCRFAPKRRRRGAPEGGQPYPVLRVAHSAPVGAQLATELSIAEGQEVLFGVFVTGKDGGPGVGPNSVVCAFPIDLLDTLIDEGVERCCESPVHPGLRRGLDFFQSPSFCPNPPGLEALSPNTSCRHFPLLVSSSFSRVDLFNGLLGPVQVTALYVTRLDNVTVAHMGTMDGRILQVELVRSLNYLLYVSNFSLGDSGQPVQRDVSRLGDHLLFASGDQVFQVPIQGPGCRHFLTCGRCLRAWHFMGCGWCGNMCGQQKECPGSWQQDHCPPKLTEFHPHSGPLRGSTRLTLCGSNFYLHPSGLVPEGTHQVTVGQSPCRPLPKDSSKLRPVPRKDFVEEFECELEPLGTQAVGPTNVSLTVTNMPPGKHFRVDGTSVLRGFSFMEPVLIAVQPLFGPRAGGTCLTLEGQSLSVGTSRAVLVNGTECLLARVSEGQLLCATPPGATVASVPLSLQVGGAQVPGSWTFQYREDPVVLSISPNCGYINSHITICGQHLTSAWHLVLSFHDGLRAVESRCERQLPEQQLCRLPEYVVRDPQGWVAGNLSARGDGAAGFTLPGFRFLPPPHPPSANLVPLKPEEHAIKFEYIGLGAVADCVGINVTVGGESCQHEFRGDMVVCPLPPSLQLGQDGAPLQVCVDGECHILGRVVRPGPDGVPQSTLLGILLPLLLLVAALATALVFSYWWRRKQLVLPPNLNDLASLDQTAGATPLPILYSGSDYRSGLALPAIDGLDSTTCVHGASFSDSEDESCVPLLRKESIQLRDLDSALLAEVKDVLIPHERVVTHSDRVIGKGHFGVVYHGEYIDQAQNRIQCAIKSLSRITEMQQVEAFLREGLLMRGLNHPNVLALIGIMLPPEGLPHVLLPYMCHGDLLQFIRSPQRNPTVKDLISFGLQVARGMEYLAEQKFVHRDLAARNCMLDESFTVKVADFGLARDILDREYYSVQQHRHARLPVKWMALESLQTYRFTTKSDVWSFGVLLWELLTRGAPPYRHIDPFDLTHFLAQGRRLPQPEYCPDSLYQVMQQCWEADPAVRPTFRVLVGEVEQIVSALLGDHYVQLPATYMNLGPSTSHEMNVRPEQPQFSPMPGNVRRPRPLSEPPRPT
Description: as §1

inhibition of purified Ron kinase [4] | SMILES | activity in lysate inhibition profile compared to MTKI [1] | inhibition of peptide phosphorylation [2] | response status ([3]; A549 cell line) | response status ([3]; Caco2 cell line) | response status ([3]; H322 cell line) | response status ([3]; H441 cell line) | response status ([3]; H1792 cell line) | response status ([3]; H2106 cell line) | response status ([3]; H2122 cell line) | response status ([3]; Kato2 cell line) | response status ([3]; MKN45 cell line) | response status ([3]; N87 cell line) | response status ([3]; SNU5 cell line) | response status ([3]; SNU484 cell line) | response status ([3]; WIDR cell line) | response status ([3]; YKG cell line)
 | C#Cc1cccc(Nc2ncnc3cc(OCCOC)c(OCCOC)cc23)c1 [Tarceva, reference compound] | additional activity |  |  |  |  |  |  |  |  |  |  |  |  |  |  | 
does not inhibit | Cn1cc(-c2ccc3nnc(C(F)(F)c4ccc5ncccc5c4)n3n2)cn1 [compound 605] |  | significant inhibition | NR | NR | NR | R | R | NR | NR | R | R | NR | R | NR | R | NR
